Measured values: patent US20150291645A1, “ISOACTEOSIDE DERIVATIVE AND USE THEREOF” (Sinphar Pharmaceutical Co., Ltd., priority 2014, published 2015)

Key:
Aβ42 = target: T1, Aβ42 (Homo sapiens, UniProt P05067); assay: Aβ42 aggregation, thioflavin T assay; format: biochemical; conditions: for inhibition at 20 µM / inhibition at 200 µM: 30 minutes 37° C.; for inhibition at 20 µM: FIG. 4A; for inhibition at 200 µM: FIG. 4B; for inhibit Aβ42 accumulation (ThT assay): summary of Experimental example 4
T1 construct: Aβ42 was redissloved in DMSO to 2.5 mg/mL
Description: Experimental method: Aβ42 was redissloved in DMSO to 2.5 mg/mL, and Samples 1-9 were diluted with D-PBS to appropriate concentrations. The concentrations of Sample 1 were 10 μM and 100 μM, the concentrations of Sample 2-9 were 20 μM and 200 μM, and the concentrations of IsoA were 10 μg/mL and 100 μg/mL. Each reaction included 1 μL of Aβ42 (final concentration was 0.25 mg/mL) and 9 μL of the testing sample, which each concentration of each sample included 8 groups, and was placed at 37° C. reacting for 30 minutes after thoroughly mixed. 200 μL of Thioflavin T working solution was added and mixed thoroughly after the reaction completed, 200 μL of the which was placed into a black, clear bottom 96-well plate, and the ThT fluorescence intensity (Ex: 440 nm, Em: 482 nm) was measured to determine the level of Aβ42 aggregation. The value of not reacting with any sample (i.e. only containing 1 μL of Aβ42 and 9 μL of D-PBS, which the final concentration of Aβ42 was 0.25 mg/mL) was a control and set to 100%, and isoacteoside (IsoA) was used as a positive control. The values of the samples were compared to the control and expressed in percentage. The experiment results are shown in FIGS. 4A-4B, which show mean±standard error of eight experimental groups (n=8), and the statistical differences between the control and the testing samples were analyzed by Dunnett's multiple comparison test, which “*” represented p<0.05; “**” represented p<0.01; “***” represented p<0.001; and “****” represented p<0.0001.
(§1) The concentration of Sample 1 was 10 μM, the concentration of Samples 2-9 was 20 μM, and the concentration of IsoA was 10 μg/mL. The level of Aβ42 accumulation was measured by ThT assay, which the measured value of the control without adding any sample was set to 100%, and other values were adjusted accordingly. […] The concentration of Sample 1 was 100 μM, the concentration of Samples 2-9 was 200 μM, and the concentration of IsoA was 100 μg/mL. The level of Aβ42 accumulation was measured by ThT assay, which the measured value of the control without adding any sample was set to 100%, and other values were adjusted accordingly.

Aβ40 = Aβ40 (Homo sapiens, UniProt P05067); assay: Aβ40 aggregation, thioflavin T assay; format: biochemical; conditions: for inhibition at 20 µM / inhibition at 200 µM: 4 hours 37° C.; for inhibition at 20 µM: FIG. 3A; for inhibition at 200 µM: FIG. 3B; for inhibit Aβ40 accumulation (ThT assay): summary of Experimental example 3
Description: Aβ40 aggregation: The Aβ40 stock was redissloved in DMSO to 10 mg/mL. Each group included 0.5 μL of 10 mg/mL Aβ40 and 4.5 μL of the testing sample diluted with Dulbecco's Phosphate-Buffered Saline (D-PBS). The concentrations of Sample 1 were 10 μM and 100 μM, and the concentrations of Sample 2-8 were 20 μM and 200 μM. The total reaction volume was 5 μL, and each concentration of each sample included 6 groups. After incubating in a 37° C. incubator for 4 hours, 200 μL of thioflavin T working solution (ThT working solution) was added and mixed thoroughly, which the thioflavin T working solution was 10 μM of thioflavin T dissolving in potassium phosphate buffer (PB buffer, pH 6.0). 200 μL of the mixture was placed into a black, clear bottom 96-well plate, and the ThT fluorescence intensity (Ex: 440 nm, Em: 482 nm) was measured to determine the level of Aβ40 aggregation. This experimental example used thioflavin T assay (ThT assay) to evaluate the level of Aβ40 aggregation. Since ThT and Congo red derivatives can form bonds with aggregated form of Aβ protein, the level of Aβ aggregation is higher when the amount of bonded ThT is more. By detecting the variation in the amount of ThT, the change in the level of Aβ aggregation can be estimated. The value of not reacting with any sample (i.e. only containing 0.5 μL of Aβ40 and 4.5 μL of D-PBS, which the final concentration of Aβ40 was 1 mg/mL) was a control and set to 100%, and isoacteoside (IsoA) was used as a positive control. The values of the testing samples were compared to the control and expressed in percentage, and the experiment results are shown in FIGS. 3A-3B. The results shown in FIGS. 3A-3B were mean±standard error of six experimental groups (n=6), and the statistical differences between the control and the testing samples were analyzed by Dunnett's multiple comparison test, which “*” represented p<0.05; “**” represented p<0.01; “***” represented p<0.001; and “****” represented p<0.0001.
as §1, with “The” for “The level of Aβ42 accumulation was measured by ThT assay, which the”

[1] = tested on: Human retinal pigment epithelium cells (ARPE-19); assay: Protection of ARPE-19 cells against tert-butyl hydroperoxide oxidative damage (MTT); format: cell-based; conditions: 24 hours; for cell viability compared to the control / inhibition of human retinal pigment epithelium cell death: with tBHP, Sample 2 at 6.25, 12.5, 25 μM, Sample 8 at 8.75, 17.5, 35 μM, FIGS. 6A-6B
Description: Human retinal pigment epithelium cells (ARPE-19) were incubated in a DMEM/F12 cell culture medium (Life Technologies) containing 10% of fetal bovine serum (FBS), and were passaged using a 96-well plate after the cell concentration reached 90% full, which each well was seeded with 4.5×10^3 cells. Next day, Samples 2 and 8 were diluted with dimethyl sulfoxide (DMSO) to about 200 times of test concentration, and after that, appropriate amount of DMEM/F12 cell culture medium containing 5% fetal bovine serum was added and diluted to twice test concentration. Then, the resultant was mixed with 0.2 mM of tert-butyl hydroperoxide (tBHP, Sigma) in equal proportions to reach the test concentration (containing 0.5% of dimethyl sulfoxide). The diluted sample was added to the plate with the cells, which was placed in an incubator reacted for 24 hours, and the cell viability was analyzed by MTT solution. The absorbance was measured at a wavelength of 570 nm, and the cells not being treated by the medicine was a control, and the average absorbance of which was set to 100%. The cell viability of the cells being treated by the medicine was calculate by the following formula based on the measured absorbance:
Cell viability=(absorbance of the experimental group/average absorbance of the control)×100%.
The experiment results are shown in FIGS. 6A-6B, which show mean±standard error of six experimental groups (n=6). The statistical differences between damaging group (i.e. accepting damaging medicine, and no protective medicine) and testing medicine groups and the control group (Control, containing 0.5% of DMSO) were analyzed by Dunnett's multiple comparison test, which “*” represented p<0.05; “**” represented p<0.01; “***” represented p<0.001; and “****” represented p<0.0001.

[2] = tested on: Aβ40 in SH-SY5Y-APP695 cell medium; assay: Inhibiting Aβ40 accumulation in culture medium of SH-SY5Y-APP695 cells (Human Aβ1-40 immunoassay, with MTT); format: cell-based; conditions: for effects of inhibiting Aβ40 accumulation: preliminary screening at lower concentration (10 and 20 μM), 24 hours
Description: Experimental method: Human neuroblastoma cell (SH-SY5Y-APP695), which expresses Swedish APP695 mutation, was incubated in a 3.5-cm culture dish until the cell concentration reached 90% full. When passage, each well of a 24-well plate was seeded with 4×10^5 cells. The culture medium was replaced with 300 μL of chemical-defined medium, which is a DMEM/F12 medium including 5 mM of Hepes buffer, 0.6% of glucose, 3 mM of NaHCO3, […], 100 μg/mL of transferrin, 20 nM of progesterone, 60 μM putrescine, 30 nM of sodium selenite, and 2 μg/mL of heparin, the next day. 3 μL of the testing sample was added into each well, and each concentration of each sample included 4 groups. After the cells were placed in an incubator (37° C., 5% CO2) and treated with the samples for 24 hours, the culture medium was collected and analyzed the amount of Aβ40 in the culture medium after treated by the samples through Human Aβ1-40 Immunoassay kits (Cat.KHB3482, Life Technologies). The cells treated by the samples were analyzed by MTT assay to evaluate the toxicity to the cells caused by sample treatment.
The testing concentrations of Sample 1 were 5 μM and 10 μM, and the testing concentrations of Samples 2-8 were 10 μM and 20 μM. The amount of Aβ40 in a SH-SY5Y-APP695 cell medium that there was no sample added as a control and set to 100%, and the amounts of Aβ40 in the medium after respectively treated by the testing samples were compared to the control and expressed in percentage. β-secretase inhibitor (β-SI) was used as a positive control. The experiment results are shown in FIGS. 1A-1D, which FIGS. 1A and 1C are result diagrams of the samples in inhibiting Aβ40 accumulation, and FIGS. 1B and 1D are result diagrams of the cell viability after treated by the samples. The results shown in FIGS. 1A-1D are mean±standard error of four experimental groups (n=4), and the statistical differences between the control and the testing samples were analyzed by Dunnett's multiple comparison test, which “*” represented p<0.05; “**” represented p<0.01; “***” represented p<0.001; and “****” represented p<0.0001.
Based on the experiment results of Experimental example 1, Sample 3, 4, and 6 having efficacy of inhibiting Aβ40 accumulation were selected. The testing concentrations of the samples were increased to 20, 50, and 100 μM, and were experimented using the method of Experimental example 1. FIG. 2A is a result diagram of the samples in inhibiting Aβ40 accumulation, and FIG. 2B is a result diagram of the cell viability after treated by the samples. The results shown in FIGS. 2A-2B are mean±standard error of four experimental groups (n=4), and the statistical differences between the control and the testing samples were analyzed by Dunnett's multiple comparison test, which “*” represented p<0.05; “**” represented p<0.01; “***” represented p<0.001; and “****” represented p<0.0001.

β-amyloid peptides (Aβ) = conditions: position of the caffeoyl group (sixth vs fourth), WO 2011/157059 A1; cited from earlier work
[3] = summary of Experimental examples 1 and 2

T1 sequence (P05067 672-713 limits assumed): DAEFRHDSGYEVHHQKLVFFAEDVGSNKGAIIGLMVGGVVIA
Aβ40, sequence (P05067 672-711 limits assumed): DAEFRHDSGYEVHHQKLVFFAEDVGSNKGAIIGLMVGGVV

Compound	inhibition at 20 µM (Aβ42)	inhibit Aβ42 accumulation (ThT assay) (Aβ42)	inhibition at 20 µM (Aβ40)	inhibition at 200 µM (Aβ40)	inhibit Aβ40 accumulation (ThT assay) (Aβ40)	effects of inhibiting Aβ40 accumulation ([2]; FIGS. 1A-1D)	inhibit Aβ40 formation in cell [2, 3]	further results
CC(=O)Oc1ccc(/C=C/C(=O)OCC2OC(OCCc3ccc(Cl)cc3)C(OC(C)=O)C(OC(C)=O)C2OC(C)=O)cc1OC(C)=O (stereo not drawn) [Sample 2]	~20%	could effectively inhibit	~20%	~20%	could effectively inhibit	–	–	inhibition at 200 µM (Aβ42): ~40%; cell viability compared to the control [1]: even better then the control; inhibition of human retinal pigment epithelium cell death [1]: could be significantly inhibited
O=C(/C=C/c1ccc(OCc2ccccc2)c(OCc2ccccc2)c1)OCC1OC(OCCc2ccccc2)C(O)C(O)C1O (stereo not drawn) [Sample 3]	–	–	–	–	–	had effects of inhibiting Aβ40 accumulation	could inhibit Aβ40 formation in cell	inhibition at 20 µM ([2]; Homo sapiens, 20 μM, condition of not affecting the cytotoxicity, FIGS. 2A-2B): ~20%; comparison among samples, inhibiting Aβ40 accumulation ([2]; preliminary screening, FIGS. 1A-1D): had the best result of inhibiting Aβ40 accumulation
O=C(/C=C/c1ccc(O)c(O)c1)OCC1OC(OCCc2ccccc2)C(O)C(O)C1O (stereo not drawn) [Sample 4]	~50%	could effectively inhibit	~30%	~20%	could effectively inhibit	had effects of inhibiting Aβ40 accumulation	could inhibit Aβ40 formation in cell	effect of increasing the sample concentration on inhibiting Aβ accumulation ([2]; 20, 50 and 100 μM, FIGS. 2A-2B): could not further enhance the efficacy of inhibiting Aβ accumulation; inhibition at 200 µM (Aβ42): ~70%
O=C(/C=C/c1ccc(OCc2ccccc2)c(OCc2ccccc2)c1)OCC1OC(OCCc2cccc(OCc3ccccc3)c2)C(O)C(O)C1O (stereo not drawn) [Sample 6]	–	–	–	–	–	had effects of inhibiting Aβ40 accumulation	could inhibit Aβ40 formation in cell	inhibition at 50 µM ([2]; Homo sapiens, 50 μM, condition of not affecting the cytotoxicity, FIGS. 2A-2B): ~40%; comparison among samples, Aβ40 formation in cell [2, 3]: had the best result
O=C(/C=C/c1ccc(O)c(O)c1)OCC1OC(OCCc2ccc(OCc3ccccc3)cc2)C(O)C(O)C1O (stereo not drawn) [Sample 8]	~60%	could effectively inhibit	~30%	≤ 70%	could effectively inhibit	–	–	comparison among samples, Aβ42 accumulation (ThT assay) (Aβ42; summary): had the best result; comparison among samples, Aβ40 accumulation (ThT assay) (Aβ40; summary): had the best result; cell viability compared to the control [1]: even better then the control; inhibition of human retinal pigment epithelium cell death [1]: could be significantly inhibited
C[C@@H]1O[C@@H](O[C@@H]2[C@@H](O)[C@H](OCCc3ccc(O)c(O)c3)O[C@H](CO)[C@H]2OC(=O)/C=C/c2ccc(O)c(O)c2)[C@H](O)[C@H](O)[C@H]1O [acteoside]	–	–	–	–	–	–	–	activity of inhibiting β-amyloid peptides (Aβ) accumulation (β-amyloid peptides (Aβ)): the activity decreased
CC(C)(C)OO [tBHP, tert-butyl hydroperoxide, reference compound]	–	–	–	–	–	–	–	cell death ([1]; tBHP alone (0.2 mM mixed in equal proportions)): 30%-40%
